Test results: the supplement of paper PMC5762512

Experiments:
Experiment in all cases: IC50 cell viability (Alamar Blue, 96 h)
WI-38 = test system: WI-38
Method: (§1)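 Cells in log-phase growth were seeded in 96-well plates and treated with drug for 96 h at 37°C using 8-point serial dilutions from 0.0025 to 10 µM. Viability was read by Alamar Blue fluorescence after 6 h and normalised to positive and vehicle (DMSO) controls. IC50 values were fitted in ActivityBase; the value given is the mean of two independent experiments.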

8645 = test system: 8645
Method: as §1

A549 = test system: A549
Method: as §1

11060 = test system: 11060
Method: as §1

TC797 = test system: TC797
Method: as §1

PER-624 = test system: PER-624
Method: as §1

CAKI-1 = test system: CAKI-1
Method: as §1

HS-27 = test system: HS-27
Method: as §1

HCC2429 = test system: HCC2429
Method: as §1

P896-CL = test system: P896-CL
Method: as §1

10326 = test system: 10326
Method: as §1

RPMI2650 = test system: RPMI2650
Method: as §1

PER-535 = test system: PER-535
Method: as §1

PER-704 = test system: PER-704
Method: as §1

TY82 = test system: TY82
Method: as §1

PER-403 = test system: PER-403
Method: as §1

PER-712 = test system: PER-712
Method: as §1

PER-536 = test system: PER-536
Method: as §1

PER-891 = test system: PER-891
Method: as §1

14169 = test system: 14169
Method: as §1

Compound	IC50 cell viability (WI-38)	IC50 cell viability 8645	IC50 cell viability (A549)	IC50 cell viability 11060	IC50 cell viability (TC797)	IC50 cell viability (PER-624)	IC50 cell viability (CAKI-1)	IC50 cell viability (HS-27)	IC50 cell viability (HCC2429)	IC50 cell viability (P896-CL)	IC50 cell viability 10326	IC50 cell viability (RPMI2650)	IC50 cell viability (PER-535)	IC50 cell viability (PER-704)	IC50 cell viability (TY82)	IC50 cell viability (PER-403)	IC50 cell viability (PER-712)	IC50 cell viability (PER-536)	IC50 cell viability (PER-891)	IC50 cell viability 14169
C#Cc1cccc(Nc2ncnc3cc(OCCOC)c(OCCOC)cc23)c1 [Erlotinib]	3120 nM	1160 nM	2740 nM	8680 nM	> 10000 nM	3260 nM	> 10000 nM	4470 nM	> 10000 nM	2580 nM	> 10000 nM	> 10000 nM	> 10000 nM	> 10000 nM	> 10000 nM	8770 nM	> 10000 nM	> 10000 nM	7100 nM	> 10000 nM
CN1CC[C@H](c2c(O)cc(O)c3c(=O)cc(-c4ccccc4Cl)oc23)[C@H](O)C1 [Flavopiridol]	84.6 nM	17.7 nM	61 nM	27.2 nM	84.4 nM	42.8 nM	122 nM	108 nM	40.3 nM	24.8 nM	25.4 nM	140 nM	131 nM	70.8 nM	64.7 nM	46.6 nM	82.5 nM	273 nM	69.5 nM	24.8 nM
CCCOc1ccn2c(C(C)=O)cc(-c3ccccc3S(C)(=O)=O)c2c1 [GSK-2801]	> 10000 nM	> 10000 nM	> 10000 nM	> 10000 nM	> 10000 nM	> 10000 nM	> 10000 nM	> 10000 nM	> 10000 nM	> 10000 nM	> 10000 nM	> 10000 nM	> 10000 nM	> 10000 nM	> 10000 nM	> 10000 nM	> 10000 nM	> 10000 nM	> 10000 nM	> 10000 nM
Nc1ccn([C@@H]2O[C@H](CO)[C@@H](O)C2(F)F)c(=O)n1 [Gemcitabine]	341 nM	12.4 nM	9.64 nM	9.77 nM	16.6 nM	6.22 nM	135 nM	137 nM	7.62 nM	29.6 nM	14.7 nM	3330 nM	5.26 nM	36.2 nM	77.5 nM	4.92 nM	49.2 nM	5.38 nM	568 nM	6.73 nM
COc1cc2c(cc1-c1c(C)noc1C)ncc1[nH]c(=O)n([C@H](C)c3ccccn3)c12 [I-BET 151]	1760 nM	529 nM	738 nM	937 nM	> 10000 nM	3240 nM	7150 nM	4370 nM	159 nM	3150 nM	43.5 nM	6810 nM	1140 nM	950 nM	584 nM	129 nM	1940 nM	4210 nM	9290 nM	178 nM
CN(Cc1cnc2nc(N)nc(N)c2n1)c1ccc(C(=O)N[C@@H](CCC(=O)O)C(=O)O)cc1 [Methotrexate]	> 10000 nM	99 nM	53.9 nM	869 nM	267 nM	25.7 nM	> 10000 nM	> 10000 nM	93.3 nM	> 10000 nM	> 10000 nM	> 10000 nM	> 10000 nM	106 nM	136 nM	30.9 nM	132 nM	> 10000 nM	> 10000 nM	65.1 nM
O=C1c2c(O)ccc(O)c2C(=O)c2c(NCCNCCO)ccc(NCCNCCO)c21 [Mitoxantrone]	108 nM	< 2.5 nM	< 2.5 nM	7.36 nM	141 nM	12.8 nM	1120 nM	41.7 nM	10 nM	10.9 nM	< 2.5 nM	1280 nM	10.7 nM	142 nM	314 nM	5.31 nM	570 nM	144 nM	266 nM	< 2.5 nM
CC[C@@]1([C@@H]2O[C@@H]([C@H]3O[C@@](O)(CO)[C@H](C)C[C@@H]3C)C[C@@H]2C)CC[C@H]([C@]2(C)CC[C@]3(C[C@H](O)[C@@H](C)[C@@H]([C@@H](C)[C@@H](OC)[C@H](C)C(=O)O)O3)O2)O1 [Monensin]	55 nM	4650 nM	234 nM	3040 nM	4080 nM	1420 nM	> 10000 nM	235 nM	4880 nM	6830 nM	817 nM	> 10000 nM	> 10000 nM	9240 nM	5070 nM	5580 nM	7480 nM	> 10000 nM	5760 nM	3510 nM
